Reference: US6787549B2, “Citrate salt of 5,8,14-triazatetracyclo[10.3.1.02,11.04,9]-hexadeca-2(11),3,5,7,9-pentaene and pharmaceutical compositions thereof” (Pfizer Inc., priority 2001, dated 2004)
Structures can show the parent of a compound that is named as a salt.

What was measured:
Assay type in all cases: physicochemical
[1] = water loss of Form A on drying (low humidity, elevated temperature)
Protocol: Under low humidity and elevated temperature, Form A will lose water depending on the macroscopic crystalline form. Unmilled samples of Form A may be dried in a 45° C. vacuum oven for several days without significant water loss (<1% water loss). […] Under conditions of low humidity and heat, Form A will dehydrate completely or nearly so to form a distinct pseudomorph which maintains a crystalline lattice, referred to herein as Form B. Form B contains between 0 and 1% water by weight.
Form B of the citrate salt of 5,8,14-triazatetracyclo[10.3.1.0^2,11.0^4,9]-hexadeca-2(11),3,5,7,9-pentaene can also be prepared by drying the citrate salt hydrate of 5,8,14-triazatetracyclo[10.3.1.0^2,11.0^4,9]-hexadeca-2(11),3,5,7,9-pentaene. A number of means for drying the water from the crystal lattice may be employed. Form B may be prepared by reducing the particle size of Form A, via any technique known to those of skill in the art, including jet milling, mechanical milling, etc., and drying the reduce particle size citrate salt Form A under conditions sufficient to remove the water in the lattice. […] Vacuum drying at temperatures in the range of 20 to 60° C. will yield Form B in the course of 30 minutes to 10 hours.

[2] = native pH in aqueous solution
[3] = aqueous solubility
[4] = hygroscopicity on exposure to 90% relative humidity in a moisture chamber
Source text: (§1) Although in general the acid addition salts of 5,8,14-triazatetracyclo[10.3.1.0^2,11.0^4,9]-hexadeca-2(11),3,5,7,9-pentaene are all crystalline, the majority of those salts are so hygroscopic as to render them poor candidates for pharmaceutical formulation use. The citrate salt exists as a hydrate under ambient conditions, where as noted above, hydrate refers to a water content of between 1 and 5% water by weight in the crystal. […] The citrate salt hydrate Form A has been prepared under different conditions: […]

[5] = inertness towards common formulation excipients
[6] = solid state stability (light, elevated temperature, high humidity challenges); conditions: in light, elevated temperatures and high humidity challenges
Source text: as §1

water loss and regain (in words) ([1]; micronized samples, as humidity and temperature are varied): readily lose and regain water
time until water loss is seen ([1]; particle size reduced, at 45° C.): less than 1 hour
water loss ([1]; unmilled samples, 45° C. vacuum oven for several days): < 1%
native pH in aqueous solution [2]: 3.7
aqueous solubility (in words) [3]: high aqueous solubility
aqueous solubility ([3]; listed as citrate hydrate salt): 110 mg/mL
solubility ([3]; water): > 100 mg/mL
hygroscopicity (in words) [4]: only slightly hygroscopic
hygroscopicity ([4]; at 90% relative humidity): approximately 0.6%
hygroscopicity ([4]; exposure to 90% relative humidity in a moisture chamber): approximately 0.6 % wt/wt
solid state stability [6]: excellent solid state stability
Compound: c1cnc2cc3c(cc2n1)C1CNCC3C1 [Form A, Citrate Salt Hydrate of 5,8,14-Triazatetracyclo[10.3.1.0^2,11.0^4,9]-Hexadeca-2(11),3,5,7,9-Pentaene (Form A)]
inertness towards common excipients used in pharmaceutical formulation [5]: relative inertness towards common excipients
